Data set [1] can be described thus: particle size by Malvern laser diffraction. The format is physicochemical. The protocol:
The particle size of oxcarbazepine may be measured using laser light diffraction technique based instrument such as a Malvern Mastersizer Microplus apparatus. Other known methods of measuring particle size may also be used. The particle size distribution of oxcarbazepine was checked after subjecting the slurry of oxcarbazepine and the hydrophilic polymer in a solvent, to mixing in a colloid mill. The particle size was determined by Malvern laser diffraction technique. The particles were dispersed in an aqueous dispersion medium of Tween 20 (0.1 ml/litre).

The conditions of data set [2]: cited from earlier work.
Setting [3] is: Example 1 slurry after mixing in colloid mill, dispersed in aqueous Tween 20.
Where [4] appears, read: oxcarbazepine used for the slurry of Example 2.

Each structure is given as a SMILES string.

For the compound `NC(=O)N1c2ccccc2CC(=O)c2ccccc21` [oxcarbazepine, 10,11-Dihydro-10-oxo-5H-dibenz [b,f]azepine-5-carboxamide], in data set [1] (setting [3]), the “Particle size D (v, 0.1) 10% particles undersized” value amounted to 6.93 μm; the “Particle size D (v, 0.5) 50% particles undersized” value came to 20.56 μm; the “Particle size D (v, 0.91) 90% particles undersized” value amounted to 45.97 μm. Moreover, in data set [1] (setting [4]), the “median particle size D50” value is 24.91 μm, the “particle size D10” value is recorded as 6.59 μm and the “particle size D90” value is 63.31 μm. Further, in data set [2], the solubility in water result is reported as “practically insoluble”.

Source of the values: US20080138403A1, “PHARMACEUTICAL DOSAGE FORMS OF OXCARBAZEPINE” (Sun Pharmaceutical Industries Ltd., priority 2006, published 2008).
